Experimental data: ChEMBL document CHEMBL3885861, “Open TG-GATES”

Organism: Rattus norvegicus
Assay: Open TG-GATES - Regimen: Daily Repeat
Format: toxicity, organism-based, Sprague-Dawley
Parameters: regimen Daily Repeat, gender Male, age 6 weeks
Conditions: in vivo, po, route gavage; for APTT / Bas / Eos / Fbg / Hb / Ht / Lym / MCHC / MCV / Mono / Neu / PT / Plat / RBC / Ret / WBC: tissue Blood; for KIDNEY_L / KIDNEY_R / KIDNEY_TOTAL: tissue Kidney; for LIVER: tissue Liver; for ALP / ALT / AST / BUN / CRE / Ca / Cl / DBIL / GLC / IP / K / LDH / Na / PL / RALB / TBIL / TC / TG / TP / gamma-GTP: tissue Plasma
[1] = 30 mg/kg, 72 h, dose level Middle, time 3 day
[2] = 30 mg/kg, […], dose level Middle, time 7 day
[3] = 30 mg/kg, […], dose level Middle, time 14 day
[4] = 30 mg/kg, […], dose level Middle, time 28 day
[5] = 100 mg/kg, 72 h, dose level High, time 3 day
[6] = 100 mg/kg, […], dose level High, time 7 day
[7] = 100 mg/kg, […], dose level High, time 14 day
[8] = 100 mg/kg, […], dose level High, time 28 day

## CS(=O)(=O)Nc1ccc([N+](=O)[O-])cc1Oc1ccccc1 [NIMESULIDE]
[1]
  TERMINAL_BW: 222.3 g
  APTT: 17.6 s
  Bas: 0%
  Eos: 1.2%
  Fbg: 211.4 mg/dL
  Hb: 13.8 g/dL
  Ht: 41.1%
  Lym: 68.6%
  MCHC: 33.6%
  MCV: 64 fL
  Mono: 10.6%
  Neu: 19.4%
  PT: 11.3 s
  Plat: 114.9 x10_4/uL
  RBC: 642.4 x10_4/ul
  Ret: 9%
  WBC: 80.8 x10_2/uL
  KIDNEY_L: 1 g
  KIDNEY_R: 1.1 g
  KIDNEY_TOTAL: 2.1 g
  LIVER: 11.4 g
  ALP: 888 IU/L
  ALT: 38 IU/L
  AST: 64.6 IU/L
  BUN: 19.6 mg/dL
  CRE: 0.6 mg/dL
  Ca: 10.7 mg/dL
  Cl: 104 meq/L
  DBIL: 0.054 mg/dL
  GLC: 196.8 mg/dL
  IP: 8.2 mg/dL
  K: 4.5 meq/L
  LDH: 91.4 IU/L
  Na: 140.8 meq/L
  PL: 159.2 mg/dL
  RALB: 4.1 g/dL
  TBIL: 0.4 mg/dL
  TC: 90.8 mg/dL
  TG: 75.6 mg/dL
  TP: 5.7 g/dL
  gamma-GTP: 0.8 IU/L
[2]
  TERMINAL_BW: 250.1 g
  APTT: 17.5 s
  Bas: 0%
  Eos: 1.4%
  Fbg: 221.8 mg/dL
  Hb: 14 g/dL
  Ht: 41.4%
  Lym: 78.4%
  MCHC: 33.9%
  MCV: 63.3 fL
  Mono: 6%
  Neu: 14%
  PT: 11.2 s
  Plat: 135 x10_4/uL
  RBC: 655 x10_4/ul
  Ret: 6.6%
  WBC: 109.7 x10_2/uL
  KIDNEY_L: 1.1 g
  KIDNEY_R: 1.1 g
  KIDNEY_TOTAL: 2.2 g
  LIVER: 13 g
  ALP: 823.8 IU/L
  ALT: 36.6 IU/L
  AST: 60.6 IU/L
  BUN: 21.2 mg/dL
  CRE: 0.6 mg/dL
  Ca: 10.6 mg/dL
  Cl: 106 meq/L
  DBIL: 0.018 mg/dL
  GLC: 208.6 mg/dL
  IP: 7.5 mg/dL
  K: 4.5 meq/L
  LDH: 91.2 IU/L
  Na: 141.8 meq/L
  PL: 139.2 mg/dL
  RALB: 4.1 g/dL
  TBIL: 0.4 mg/dL
  TC: 74.2 mg/dL
  TG: 72.2 mg/dL
  TP: 5.9 g/dL
  gamma-GTP: 0.8 IU/L
[3]
  TERMINAL_BW: 313 g
  APTT: 16.8 s
  Bas: 0%
  Eos: 1.2%
  Fbg: 227.6 mg/dL
  Hb: 14.2 g/dL
  Ht: 41.4%
  Lym: 76.2%
  MCHC: 34.4%
  MCV: 61.6 fL
  Mono: 6.6%
  Neu: 16.4%
  PT: 11.7 s
  Plat: 126.4 x10_4/uL
  RBC: 672.8 x10_4/ul
  Ret: 6.1%
  WBC: 127 x10_2/uL
  KIDNEY_L: 1.2 g
  KIDNEY_R: 1.3 g
  KIDNEY_TOTAL: 2.5 g
  LIVER: 17 g
  ALP: 888.2 IU/L
  ALT: 33 IU/L
  AST: 66.4 IU/L
  BUN: 23 mg/dL
  CRE: 0.6 mg/dL
  Ca: 10.7 mg/dL
  Cl: 105 meq/L
  DBIL: 0.004 mg/dL
  GLC: 195.4 mg/dL
  IP: 7.2 mg/dL
  K: 4.6 meq/L
  LDH: 82.2 IU/L
  Na: 141 meq/L
  PL: 155.2 mg/dL
  RALB: 4.1 g/dL
  TBIL: 0.4 mg/dL
  TC: 77 mg/dL
  TG: 120 mg/dL
  TP: 6 g/dL
  gamma-GTP: 1 IU/L
[4]
  TERMINAL_BW: 399.9 g
  APTT: 18.5 s
  Bas: 0%
  Eos: 1%
  Fbg: 219.2 mg/dL
  Hb: 15.3 g/dL
  Ht: 45%
  Lym: 82.8%
  MCHC: 34.1%
  MCV: 58.1 fL
  Mono: 6%
  Neu: 10.4%
  PT: 11.7 s
  Plat: 112.1 x10_4/uL
  RBC: 775.2 x10_4/ul
  Ret: 2.8%
  WBC: 129 x10_2/uL
  KIDNEY_L: 1.4 g
  KIDNEY_R: 1.4 g
  KIDNEY_TOTAL: 2.8 g
  LIVER: 17.8 g
  ALP: 831.6 IU/L
  ALT: 37.2 IU/L
  AST: 65 IU/L
  BUN: 25.8 mg/dL
  CRE: 0.6 mg/dL
  Ca: 10.5 mg/dL
  Cl: 107.2 meq/L
  DBIL: 0.002 mg/dL
  GLC: 198.4 mg/dL
  IP: 7 mg/dL
  K: 4.6 meq/L
  LDH: 92.6 IU/L
  Na: 144 meq/L
  PL: 169 mg/dL
  RALB: 4.1 g/dL
  TBIL: 0.4 mg/dL
  TC: 80.4 mg/dL
  TG: 159.4 mg/dL
  TP: 6.3 g/dL
  gamma-GTP: 1.4 IU/L
[5]
  TERMINAL_BW: 201.1 g
  APTT: 17.3 s
  Bas: 0%
  Eos: 1.4%
  Fbg: 222 mg/dL
  Hb: 14.1 g/dL
  Ht: 41.6%
  Lym: 66.8%
  MCHC: 34%
  MCV: 64.1 fL
  Mono: 8.6%
  Neu: 22.8%
  PT: 11.6 s
  Plat: 113.5 x10_4/uL
  RBC: 649.4 x10_4/ul
  Ret: 6.7%
  WBC: 100.9 x10_2/uL
  KIDNEY_L: 0.9 g
  KIDNEY_R: 0.9 g
  KIDNEY_TOTAL: 1.9 g
  LIVER: 10.5 g
  ALP: 841.4 IU/L
  ALT: 37.4 IU/L
  AST: 63.8 IU/L
  BUN: 21.8 mg/dL
  CRE: 0.5 mg/dL
  Ca: 10.9 mg/dL
  Cl: 105 meq/L
  DBIL: 0.06 mg/dL
  GLC: 178.2 mg/dL
  IP: 6.7 mg/dL
  K: 4.4 meq/L
  LDH: 97.2 IU/L
  Na: 141.4 meq/L
  PL: 168.2 mg/dL
  RALB: 4.1 g/dL
  TBIL: 0.3 mg/dL
  TC: 91.2 mg/dL
  TG: 60.6 mg/dL
  TP: 5.6 g/dL
  gamma-GTP: 1.8 IU/L
[6]
  TERMINAL_BW: 235.6 g
  APTT: 19.1 s
  Bas: 0%
  Eos: 1.2%
  Fbg: 275.5 mg/dL
  Hb: 13.3 g/dL
  Ht: 39.3%
  Lym: 62.5%
  MCHC: 33.7%
  MCV: 63 fL
  Mono: 6.2%
  Neu: 30.2%
  PT: 11.2 s
  Plat: 135.9 x10_4/uL
  RBC: 624.5 x10_4/ul
  Ret: 11.2%
  WBC: 138.2 x10_2/uL
  KIDNEY_L: 1.1 g
  KIDNEY_R: 1.1 g
  KIDNEY_TOTAL: 2.2 g
  LIVER: 12.7 g
  ALP: 860.8 IU/L
  ALT: 32.2 IU/L
  AST: 63.2 IU/L
  BUN: 20 mg/dL
  CRE: 0.6 mg/dL
  Ca: 10.9 mg/dL
  Cl: 105.5 meq/L
  DBIL: 0.0275 mg/dL
  GLC: 199.5 mg/dL
  IP: 6.6 mg/dL
  K: 4.4 meq/L
  LDH: 75.8 IU/L
  Na: 141.2 meq/L
  PL: 166.8 mg/dL
  RALB: 4 g/dL
  TBIL: 0.4 mg/dL
  TC: 92 mg/dL
  TG: 68.5 mg/dL
  TP: 6 g/dL
  gamma-GTP: 1.5 IU/L
[7]
  TERMINAL_BW: 287.5 g
  APTT: 17.7 s
  Bas: 0%
  Eos: 1.4%
  Fbg: 250.2 mg/dL
  Hb: 13.6 g/dL
  Ht: 39.4%
  Lym: 55.8%
  MCHC: 34.4%
  MCV: 65.7 fL
  Mono: 9.8%
  Neu: 32.8%
  PT: 11.6 s
  Plat: 141.2 x10_4/uL
  RBC: 605 x10_4/ul
  Ret: 14%
  WBC: 143.9 x10_2/uL
  KIDNEY_L: 1.2 g
  KIDNEY_R: 1.3 g
  KIDNEY_TOTAL: 2.5 g
  LIVER: 16.1 g
  ALP: 842 IU/L
  ALT: 31.4 IU/L
  AST: 60.8 IU/L
  BUN: 24.6 mg/dL
  CRE: 0.6 mg/dL
  Ca: 10.7 mg/dL
  Cl: 105.4 meq/L
  DBIL: 0.008 mg/dL
  GLC: 184.8 mg/dL
  IP: 7 mg/dL
  K: 4.5 meq/L
  LDH: 79.8 IU/L
  Na: 141.6 meq/L
  PL: 171 mg/dL
  RALB: 4 g/dL
  TBIL: 0.4 mg/dL
  TC: 90.4 mg/dL
  TG: 98.8 mg/dL
  TP: 5.9 g/dL
  gamma-GTP: 2.2 IU/L
[8]
  TERMINAL_BW: 332.9 g
  APTT: 18.9 s
  Bas: 0%
  Eos: 1.4%
  Fbg: 235.2 mg/dL
  Hb: 15.4 g/dL
  Ht: 45.6%
  Lym: 71.8%
  MCHC: 33.7%
  MCV: 59.4 fL
  Mono: 8%
  Neu: 19.2%
  PT: 11.9 s
  Plat: 118.9 x10_4/uL
  RBC: 769.2 x10_4/ul
  Ret: 4%
  WBC: 126.2 x10_2/uL
  KIDNEY_L: 1.3 g
  KIDNEY_R: 1.3 g
  KIDNEY_TOTAL: 2.6 g
  LIVER: 17 g
  ALP: 656.6 IU/L
  ALT: 27.6 IU/L
  AST: 57.8 IU/L
  BUN: 24 mg/dL
  CRE: 0.6 mg/dL
  Ca: 10.9 mg/dL
  Cl: 107.4 meq/L
  DBIL: 0.018 mg/dL
  GLC: 180.6 mg/dL
  IP: 6.8 mg/dL
  K: 4.5 meq/L
  LDH: 71.2 IU/L
  Na: 144.4 meq/L
  PL: 182.2 mg/dL
  RALB: 4.2 g/dL
  TBIL: 0.4 mg/dL
  TC: 100.4 mg/dL
  TG: 102.6 mg/dL
  TP: 6.2 g/dL
  gamma-GTP: 1.6 IU/L
